Test results as given in patent publication US6727277B1, “Compounds affecting cholesterol absorption” (Kansas State University Research Foundation, priority 2002, dated 2004).

Columns and labels:
[1] = target: T1, cholesterol ester transfer protein (CETP) (Homo sapiens, UniProt P11597); assay: Inhibition of CETP, purified CETP preparation; format: biochemical; settings: FIG. 3, FIG. 4
T1 sequence (P11597 18-493): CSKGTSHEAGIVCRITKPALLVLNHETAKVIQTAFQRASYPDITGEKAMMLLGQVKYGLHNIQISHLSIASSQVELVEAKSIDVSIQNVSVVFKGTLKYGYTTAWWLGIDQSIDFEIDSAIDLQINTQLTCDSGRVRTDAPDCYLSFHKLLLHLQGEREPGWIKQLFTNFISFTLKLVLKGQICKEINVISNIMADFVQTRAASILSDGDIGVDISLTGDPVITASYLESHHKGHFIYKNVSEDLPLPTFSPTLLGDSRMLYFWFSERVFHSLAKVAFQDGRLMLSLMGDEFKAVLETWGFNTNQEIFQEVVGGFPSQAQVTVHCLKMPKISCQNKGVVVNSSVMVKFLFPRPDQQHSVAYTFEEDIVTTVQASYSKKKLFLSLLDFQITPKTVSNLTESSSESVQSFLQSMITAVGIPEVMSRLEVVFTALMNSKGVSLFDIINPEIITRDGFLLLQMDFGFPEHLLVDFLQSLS
Method: The effect of compound 24 on inhibition of CETP was tested using a purified CETP preparation. CETP was purified and assayed according to procedures described in Tomada, H.; Tabata, N.; Shinose, M.; Takahashi Y.; Woodruff, H. B.; Omura, S. J. Antibiotics, 52: 1101-1107 (1999).

[2] = tested on: lymphatic absorption of oleic acid; assay: Lymphatic absorption of oleic acid (triolein) in lymph-cannulated rats, fatty acid analysis of lymph; format: in vivo, rat
Method: Ten male Sprague-Dawley rats (Harlan Sprague Dawley, Inc., Indianapolis, Ind.) weighing 274.3±7.8 grams were housed individually in plastic cages in an environmentally controlled room of illumination (12:12-h light/dark cycle with the dark period from 0330 to 1530), humidity (60-70%), and temperature (22-25° C.) throughout the study. Rats had free access to deionized water and a nutritionally adequate diet (Table 1) containing soybean oil as the fat source and egg white as the protein source. The diet was formulated according to AIN-93G recommendations (In: Trace Elements in Laboratory Rodents (Watson, R. R., ed.), pp. 3-37. CRC Press, Boca Raton, Fla.). […]
(§1) During the duodenal infusion of lipid emulsion, lymph samples were collected hourly in preweighed ice-chilled centrifuge tubes containing 4 mg Na2-EDTA and 30 μg n-propyl gallate (Sigma Chemical, St. Louis, Mo.) as antioxidants. A portion of each lymph sample (100 μL) was mixed with scintillation liquid (ScintiVerse; Fisher Scientific, Fair Lawn, N.J.) and counted by scintillation spectrometry (Beckman LS-6500; Beckman Instruments, Fullerton, Calif.). The total ^14C-radioactivity appearing in hourly lymph volume (the hourly rates of ^14C-CH absorption) was expressed as a percentage of the total radioactivity infused (% dose). […]

[3] = tested on: cholesterol ester transfer protein (CETP); assay: CETP activity, crude CETP preparation derived from hamster plasma; format: biochemical; settings: in vitro
Method: The inhibitory effect of compound 1 on the activity of cholesterol ester transfer protein (CETP) was measured, using a crude CETP preparation derived from hamster plasma.

Sprague-Dawley rats = assay: Observation of behaviour and visual examination of organs of infused rats; format: in vivo, rat
Description: Rats were sacrificed at the day end of the infusion, and the intestine and other organs were dissected and visually examined.

[4] = tested on: lymphatic absorption of cholesterol; assay: Lymphatic absorption of 14C-cholesterol in lymph-cannulated rats infused with lipid emulsion; format: in vivo, rat
Method: Ten male Sprague-Dawley rats (Harlan Sprague Dawley, Inc., Indianapolis, Ind.) weighing 274.3±7.8 grams were housed individually in plastic cages in an environmentally controlled room of illumination (12:12-h light/dark cycle with the dark period from 0330 to 1530), humidity (60-70%), and temperature (22-25° C.) throughout the study. Rats had free access to deionized water and a nutritionally adequate diet (Table 1) containing soybean oil as the fat source and egg white as the protein source. The diet was formulated according to AIN-93G recommendations (In: Trace Elements in Laboratory Rodents (Watson, R. R., ed.), pp. 3-37. CRC Press, Boca Raton, Fla.). Animals were cared for in an animal care facility accredited by the American Association for the Accreditation of Laboratory Animal Care. Rats were maintained in accordance with the policies and guidelines for animal care and use procedures of the Kansas State University Institutional Animal Care and Use Committee.
At 6 wk, rats were starved overnight for 17 h but allowed water ad libitum prior to the surgical placement of a lymph cannula and duodenal infusion catheter. The mesenteric lymph duct was cannulated as described in Koo et al., J. Nutr. 131: 717-722 (2001). Briefly, while rats were under anesthesia (2.0% halothane in 2.0 L O2/min delivered via a halothane vaporizer), a midline abdominal incision was made. […] The cannula was fixed in place with ethyl cyanoacrylate glue (Elmer's Products, Columbus, Ohio) and externalized through the right flank. An indwelling infusion catheter (Silastic® laboratory tubing, i.d. 1.0 mm, o.d. 2.2 mm; Dow Coming, Midland, Mich.) was introduced via the gastric fundus into the upper duodenum and secured in place with a purse-string suture (4-0 Silk, Ethicon, Somerville, N.J.) around the fundic incision. The infusion catheter was exteriorized alongside the lymph cannula. After the abdominal incision was closed, the rats were placed in restraining cages and housed in a recovery chamber at 30° C. for postoperative recovery for 22-24 h. During the recovery period, rats were infused continuously with glucose in phosphate buffered saline (PBS) (in mmol/L: 277 glucose, 6.75 Na2HPO4, 16.5 NaH2PO4, 115 NaCl, and 5 KCl; pH 6.7) v infusion catheter at 3.0 mL/h by a syringe pump (Harvard Apparatus, Model 935, South Natick, Mass.) to ensure adequate hydration and nutritional status of the animals.
After postoperative recovery, each rat was infused with a lipid emulsion at 3 mL/h for 8 h via the duodenal catheter in subdued light. The lipid emulsion consisted of 451.8 μmol triolein (95%, Sigma Chemical, St. Louis, Mo.), 33.3 kBq [4-^14C]-cholesterol (^14C-CH; specific activity, 1.85 GBq/mmol, American Radiolabeled Chemicals, St. Louis, Mo.), 20.7 μmol cholesterol, 3.1 μmol α-tocopherol (all-rac-dl-α-tocopherol, 97%, Aldrich Chemical, Milwaukee, Wis.) as an antioxidant, and 396.0 μmol sodium taurocholate (Sigma Chemical, St. Louis, Mo.) in 24 mL of PBS buffer, pH 6.5. For half of the rats, the lipid emulsion contained 114.9 μmol compound 1 (41.9 mg). Lipid emulsion was prepared under a gentle N2 stream and subdued light for 55 min using a microprocessor-controlled ultrasonicator equipped with a microtip (XL-2020 Ultrasonic Liquid Processor, Misonix, Farmingdale, N.Y.).
as §1, with “dose). All samples were ice chilled and handled in subdued light.” for “dose).”

[5] = rats, 8 h duodenal infusion of lipid emulsion with 114.9 μmol (41.9 mg) compound 1, means ± SD, n = 5

IC50 [1] [µM]	abnormalities of intestine and other organs, visual examination (Sprague-Dawley rats; rats sacrificed at end of infusion)	Structure (SMILES)	absorption of triolein compared to control rats ([2]; rats infused for eight hours)	Oleic acid absorbed in lymph [2, 5] [μmol/8 h]	dose above which HDL total cholesterol, HDL free cholesterol and HDL cholesterol ester increased [3]	gross motor or behavioral abnormalities (Sprague-Dawley rats; rats, 8 h infusion)	14C-cholesterol absorbed, cumulative ([4]; 1 h, rats, means ± SD, n = 5) [% dose]	14C-cholesterol absorbed, cumulative ([4]; 2 h, rats, means ± SD, n = 5) [% dose]	14C-cholesterol absorbed, cumulative ([4]; 3 h, rats, means ± SD, n = 5) [% dose]	14C-cholesterol absorbed, cumulative ([4]; 4 h, rats, means ± SD, n = 5) [% dose]	14C-cholesterol absorbed, cumulative ([4]; 5 h, rats, means ± SD, n = 5) [% dose]	14C-cholesterol absorbed, cumulative ([4]; 6 h, rats, means ± SD, n = 5) [% dose]	14C-cholesterol absorbed, cumulative ([4]; 7 h, rats, means ± SD, n = 5) [% dose]	14C-cholesterol absorbed, cumulative ([4]; 8 h, rats, means ± SD, n = 5) [% dose]	percent cholesterol absorption ([4]; after 8 hours of treatment, 41.9 mg of compound 1, control 37.69%) [%]	total cholesterol absorption compared to control rats ([4]; rats infused for eight hours)	14C-CH absorption [4, 5] [% dose/8 h]
31		CC1(C)CCC[C@]2(C)C3=CC4=C(Cl)C(=O)C(=O)C=C4O[C@]3(C)CC[C@@H]12 [Compound 24, (4aS,6aR,12aR,12bS)-2H-11-Chloro-1,3,4,4a,5,6,6a,9,10,12b-decahydro-4,4,6a,12b-tetramethyl-benzo[a]xanthene-9,10-dione]															
	No abnormalities were found	CC1(C)CCC[C@]2(C)C3=Cc4c(cc(O)c(O)c4Cl)O[C@]3(C)CC[C@@H]12 [Compound 1, (4aS,6aR,12bS)-2H-11-Chloro-1,3,4,4a,5,6,6a,12b-octahydro-4,4,6a,12b-tetramethyl-benzo[a]xanthene-9,10-diol]	significantly less	253 ± 79	exceeded 250 μM	no gross motor or behavioral abnormalities	0.12 ± 0.04	1.22 ± 0.25	2.70 ± 0.42	4.18 ± 0.92	5.68 ± 1.37	7.32 ± 1.78	9.13 ± 2.41	10.95 ± 3.29	10.95	significantly less	10.95 ± 3.29
~22		C=Cc1ccc(OC(=O)c2ccc(O)c(N=O)c2)cc1.C=Cc1ccc(OC(=O)c2ccc(O)c(N=O)c2)cc1.C=Cc1ccc(OC(=O)c2ccc(O)c(N=O)c2)cc1.[Fe+2] [Ferroverdin A, reference compound]															
